This note sets out measurements from US10526316B2, “Quinoxaline and pyridopyrazine derivatives as PI3Kβ inhibitors” (Janssen Pharmaceutica NV, priority 2015, dated 2020).

Structures are written as SMILES. Where two headings read alike, the source gives them in different places.

In test [1] the target is T1, PI3Kδ (Homo sapiens, UniProt O00329).
T1 construct: purchased DiscoveRx Corporation, San Diego (contract service, KINOMEscan)
T1 sequence (O00329 1-1044): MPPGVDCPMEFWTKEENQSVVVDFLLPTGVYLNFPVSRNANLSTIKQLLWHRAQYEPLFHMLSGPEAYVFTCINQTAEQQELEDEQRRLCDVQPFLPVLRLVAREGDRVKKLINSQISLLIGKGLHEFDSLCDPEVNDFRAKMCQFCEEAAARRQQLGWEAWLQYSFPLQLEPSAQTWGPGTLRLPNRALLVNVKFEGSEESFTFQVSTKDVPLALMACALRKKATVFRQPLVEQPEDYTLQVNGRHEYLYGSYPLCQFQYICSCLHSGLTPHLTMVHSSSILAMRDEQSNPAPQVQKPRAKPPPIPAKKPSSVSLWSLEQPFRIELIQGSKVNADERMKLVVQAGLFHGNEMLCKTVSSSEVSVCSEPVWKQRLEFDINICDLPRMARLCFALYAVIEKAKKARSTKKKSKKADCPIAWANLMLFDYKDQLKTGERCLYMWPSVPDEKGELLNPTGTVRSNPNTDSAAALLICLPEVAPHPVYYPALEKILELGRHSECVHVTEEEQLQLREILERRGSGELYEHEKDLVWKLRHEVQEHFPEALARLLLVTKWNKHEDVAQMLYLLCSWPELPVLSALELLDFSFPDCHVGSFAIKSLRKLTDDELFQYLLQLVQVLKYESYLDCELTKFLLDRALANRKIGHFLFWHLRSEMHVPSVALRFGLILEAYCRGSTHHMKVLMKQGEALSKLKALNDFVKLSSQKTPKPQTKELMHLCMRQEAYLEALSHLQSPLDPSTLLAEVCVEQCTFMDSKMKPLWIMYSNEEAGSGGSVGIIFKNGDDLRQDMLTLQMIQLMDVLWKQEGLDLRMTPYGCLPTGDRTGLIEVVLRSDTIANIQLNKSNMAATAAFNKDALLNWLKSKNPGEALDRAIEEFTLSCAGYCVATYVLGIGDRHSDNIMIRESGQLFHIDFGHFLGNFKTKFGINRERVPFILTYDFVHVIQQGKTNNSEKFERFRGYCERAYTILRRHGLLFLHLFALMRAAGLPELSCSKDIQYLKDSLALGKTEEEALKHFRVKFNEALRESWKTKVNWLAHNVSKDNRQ
The experiment in a line: Enzyme binding assay (KINOMEscan, DiscoveRx). The note with it: PIK3Cδ_h. The essentials: (§1)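 Binding affinities were measured on the KINOMEscan platform.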

The test system of test [2] is Akt phosphorylated at Thr308 in PC-3 cells. The experiment in a line: Cellular assay: phosphorylation of Akt at Thr308 in PC-3 cells (MSD ELISA). The format is cell-based. The conditions noted are these: PC-3 cells, 60 min compound incubation, MSD ELISA, read-out: IC50 pAkt_Thr308. The essentials: (§2)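 Compound treatment of PC-3 cells lasted 60 min at 37° C (0.3% DMSO). Lysates were then applied to plates carrying capture antibodies for the relevant phospho-site, and bound Akt was detected with an electrochemiluminescent anti-total Akt antibody; IC50s derive from five-point curves.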

The target in test [3] is T2, PI3Kβ (Homo sapiens, UniProt P42338).
T2 construct: purchased DiscoveRx Corporation, San Diego (contract service, KINOMEscan)
T2 sequence (P42338 whole entry): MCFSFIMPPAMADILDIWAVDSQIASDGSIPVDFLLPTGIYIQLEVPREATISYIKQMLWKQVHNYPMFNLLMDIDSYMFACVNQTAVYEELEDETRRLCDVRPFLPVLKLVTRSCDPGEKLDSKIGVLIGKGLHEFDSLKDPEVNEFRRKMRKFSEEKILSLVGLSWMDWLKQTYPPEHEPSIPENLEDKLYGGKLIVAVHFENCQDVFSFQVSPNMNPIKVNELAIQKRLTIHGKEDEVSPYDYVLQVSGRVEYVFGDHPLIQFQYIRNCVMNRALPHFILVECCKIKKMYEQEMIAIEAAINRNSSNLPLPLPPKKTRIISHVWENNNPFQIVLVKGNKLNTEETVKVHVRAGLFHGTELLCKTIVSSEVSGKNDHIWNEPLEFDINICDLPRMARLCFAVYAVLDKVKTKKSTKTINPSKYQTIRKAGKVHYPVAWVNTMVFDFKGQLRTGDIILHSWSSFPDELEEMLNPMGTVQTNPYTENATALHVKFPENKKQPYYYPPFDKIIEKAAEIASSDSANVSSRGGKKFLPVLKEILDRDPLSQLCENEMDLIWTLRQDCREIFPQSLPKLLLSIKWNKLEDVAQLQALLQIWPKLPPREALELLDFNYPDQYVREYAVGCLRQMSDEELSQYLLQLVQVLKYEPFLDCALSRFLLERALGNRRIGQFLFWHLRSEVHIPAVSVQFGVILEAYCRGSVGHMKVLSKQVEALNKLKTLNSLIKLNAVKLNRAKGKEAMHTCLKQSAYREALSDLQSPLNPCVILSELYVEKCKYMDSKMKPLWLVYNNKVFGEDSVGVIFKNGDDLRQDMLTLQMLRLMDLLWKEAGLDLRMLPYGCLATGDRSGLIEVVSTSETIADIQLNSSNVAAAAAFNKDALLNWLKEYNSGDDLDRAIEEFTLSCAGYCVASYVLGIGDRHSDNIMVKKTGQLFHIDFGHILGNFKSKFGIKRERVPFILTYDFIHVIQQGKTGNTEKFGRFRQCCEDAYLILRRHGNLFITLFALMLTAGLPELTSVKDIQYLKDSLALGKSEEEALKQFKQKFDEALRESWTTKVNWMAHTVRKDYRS
The experiment in a line: Enzyme binding assay (KINOMEscan, DiscoveRx). The note with it: PIK3Cβ_h, read-out: Kd PIK3Cβ_h. The essentials: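 Kinase binding affinities were measured with KINOMEscan technology. Results are given as Kd, the inhibitor binding constant, in nM.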

Test [4] concerns the target T3, kinase enzymes (Homo sapiens, UniProt P48736).
T3 construct: purchased DiscoveRx Corporation, San Diego (contract service, KINOMEscan)
The experiment in a line: Enzyme binding assay (KINOMEscan, DiscoveRx), further kinases of Table A. The conditions noted are these: PIK3Cγ_h. The essentials:
as §1

Test [5] addresses T4, kinase enzymes (Homo sapiens, UniProt P42345).
T4 construct: purchased DiscoveRx Corporation, San Diego (contract service, KINOMEscan)
The description is as above. The conditions noted are these: MTOR_h. The essentials:
as §1

Test [6] addresses T5, kinase enzymes (Homo sapiens, UniProt P42336).
T5 construct: purchased DiscoveRx Corporation, San Diego (contract service, KINOMEscan)
Described as above. The conditions noted are these: PIK3Cα_h. The method in brief:
as §1

Test [7] deals with Akt phosphorylated at Ser473 in PC-3 cells. The experiment in a line: Cellular assay: phosphorylation of Akt at Ser473 in PC-3 cells (MSD ELISA). Type of test: cell-based. The note with it: PC-3 cells, 60 min compound incubation, MSD ELISA, read-out: IC50 pAkt_S473. The method in brief: as §2

T3 sequence (P48736 whole entry): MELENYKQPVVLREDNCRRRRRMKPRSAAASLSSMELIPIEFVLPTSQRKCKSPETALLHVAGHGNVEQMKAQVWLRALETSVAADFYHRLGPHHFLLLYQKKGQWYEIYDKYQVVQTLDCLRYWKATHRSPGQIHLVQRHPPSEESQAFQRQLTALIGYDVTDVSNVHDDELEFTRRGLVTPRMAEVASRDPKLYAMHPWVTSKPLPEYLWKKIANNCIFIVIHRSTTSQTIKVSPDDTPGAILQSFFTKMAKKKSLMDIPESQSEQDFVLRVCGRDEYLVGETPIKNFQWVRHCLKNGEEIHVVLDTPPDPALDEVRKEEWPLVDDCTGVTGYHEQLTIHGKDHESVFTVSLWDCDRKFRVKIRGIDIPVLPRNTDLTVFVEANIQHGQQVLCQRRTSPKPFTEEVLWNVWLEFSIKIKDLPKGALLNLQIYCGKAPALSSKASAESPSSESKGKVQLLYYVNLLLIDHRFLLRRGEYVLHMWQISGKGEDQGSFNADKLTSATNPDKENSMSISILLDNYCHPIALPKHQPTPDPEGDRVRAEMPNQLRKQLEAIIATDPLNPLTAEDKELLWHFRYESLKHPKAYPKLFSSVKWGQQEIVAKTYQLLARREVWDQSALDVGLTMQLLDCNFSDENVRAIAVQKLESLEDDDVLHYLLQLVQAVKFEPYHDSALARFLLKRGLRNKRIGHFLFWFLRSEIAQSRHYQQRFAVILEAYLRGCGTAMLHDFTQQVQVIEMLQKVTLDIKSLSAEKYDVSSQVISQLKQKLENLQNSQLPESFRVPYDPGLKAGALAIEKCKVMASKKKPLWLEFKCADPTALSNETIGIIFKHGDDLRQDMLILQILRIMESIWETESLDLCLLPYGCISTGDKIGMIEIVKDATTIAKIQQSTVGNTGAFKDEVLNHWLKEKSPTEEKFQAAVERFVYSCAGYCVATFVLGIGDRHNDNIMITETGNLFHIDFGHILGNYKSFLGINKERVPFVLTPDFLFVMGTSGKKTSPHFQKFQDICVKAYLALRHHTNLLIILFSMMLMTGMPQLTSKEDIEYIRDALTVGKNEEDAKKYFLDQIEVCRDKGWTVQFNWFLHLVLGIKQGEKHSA
T5 sequence (P42336 whole entry): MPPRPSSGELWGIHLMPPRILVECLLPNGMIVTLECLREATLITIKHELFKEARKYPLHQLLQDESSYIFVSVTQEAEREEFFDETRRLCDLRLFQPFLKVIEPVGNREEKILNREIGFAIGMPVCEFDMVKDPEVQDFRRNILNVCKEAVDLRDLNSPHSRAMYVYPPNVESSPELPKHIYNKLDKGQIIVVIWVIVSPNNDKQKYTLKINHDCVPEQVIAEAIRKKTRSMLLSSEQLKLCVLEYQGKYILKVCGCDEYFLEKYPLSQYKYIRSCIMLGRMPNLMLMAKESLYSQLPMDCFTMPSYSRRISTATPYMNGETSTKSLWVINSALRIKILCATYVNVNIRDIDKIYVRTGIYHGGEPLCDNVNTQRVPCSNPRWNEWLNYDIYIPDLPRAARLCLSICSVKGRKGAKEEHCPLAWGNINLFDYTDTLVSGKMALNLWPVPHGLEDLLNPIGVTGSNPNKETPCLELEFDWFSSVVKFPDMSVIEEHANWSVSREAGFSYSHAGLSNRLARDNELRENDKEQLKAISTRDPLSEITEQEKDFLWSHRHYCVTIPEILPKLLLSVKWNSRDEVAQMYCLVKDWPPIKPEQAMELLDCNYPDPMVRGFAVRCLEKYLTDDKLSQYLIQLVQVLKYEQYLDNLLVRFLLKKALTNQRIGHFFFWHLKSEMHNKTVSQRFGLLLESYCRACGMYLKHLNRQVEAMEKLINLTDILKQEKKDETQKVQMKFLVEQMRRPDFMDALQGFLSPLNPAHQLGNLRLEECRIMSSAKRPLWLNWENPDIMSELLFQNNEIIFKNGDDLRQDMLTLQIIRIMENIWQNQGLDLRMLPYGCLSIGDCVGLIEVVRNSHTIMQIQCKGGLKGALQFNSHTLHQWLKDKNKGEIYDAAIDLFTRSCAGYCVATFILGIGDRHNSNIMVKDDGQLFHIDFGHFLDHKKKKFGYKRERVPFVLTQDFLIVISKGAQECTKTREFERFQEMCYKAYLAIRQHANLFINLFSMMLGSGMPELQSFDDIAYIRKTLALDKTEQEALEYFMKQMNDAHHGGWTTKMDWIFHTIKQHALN

Take `CN(C(=O)c1cc(NCc2cc(F)cc(F)c2)c2nc(N3CCOCC3)cnc2c1)[C@H]1CCNC1` [Compound 368]: the Kd was 1410 nM in test [1]; 7 nM in test [3]; more than 30200 nM in test [4]; more than 30200 nM in test [5]; 5370 nM in test [6]. In addition, the half-maximal inhibitory concentration (IC50) was approximately 23 nM in test [2] (Homo sapiens, PC-3, 1 h) and 120 nM in test [7] (Homo sapiens, PC-3, 1 h).
Regarding `CC(Nc1ccc(F)c(F)c1)c1cc(C(=O)NCC(C)(C)O)cc2ncc(N3CCOCC3)nc12` (single isomer, unassigned) [Compound 348b], the Kd in test [1] is 25700 nM; in test [3] it was 1320 nM; in test [4], more than 30200 nM; in test [5] it was more than 30200 nM; in test [6], more than 30200 nM. The IC50 in test [2] and in test [7] was more than 513 nM in each case.
As to `CN(C)C(=O)c1cc(N2CCC2c2ccc(F)cc2)c2nc(N3CCOCC3)cnc2c1` (single isomer, unassigned) [Compound 397b], the Kd in test [1] is 871 nM; in test [3], 25 nM; in test [4], 12300 nM; in test [5], more than 30200 nM; in test [6] it was 1860 nM. Moreover, the results for the IC50 in test [2] and in test [7] were more than 513 nM and approximately 513 nM, respectively.
Regarding `CN[C@H]1CCN(C(=O)c2cc(C(C)Oc3cc(F)c(F)c(F)c3)c3nc(N4CCOCC4)cnc3c2)C1` (single isomer, unassigned) [Compound 405b], the Kd in test [1] is 219 nM; in test [3], 1 nM; in test [4], 4680 nM; in test [5], 20900 nM; in test [6] it was 5010 nM. The IC50 in test [2] stood at 33 nM; in test [7], 44 nM.
In the case of `CC(Oc1cccc(F)c1F)c1cc(C(=O)N(C)C)cc2ncc(N3CCOCC3)nc12` (single isomer, unassigned) [Compound 73], the Kd is 282 nM in test [1]; 9 nM in test [3]; 19500 nM in test [4]; more than 30200 nM in test [5]; 2040 nM in test [6]. The IC50 in test [2] (Homo sapiens, PC-3, 1 h) is 331 nM; in test [7] (Homo sapiens, PC-3, 1 h), more than 513 nM.
Consider `CC(Oc1cccc(F)c1)c1cc(C(=O)N(C)C)cc2ncc(N3CCOCC3)nc12` (single isomer, unassigned) [Compound 339a], for which the Kd in test [1] is 2090 nM; in test [3] it was 112 nM; in test [4], 10700 nM; in test [5], more than 30200 nM; in test [6], 4570 nM. Also, the IC50 was 407 nM in test [2] and more than 513 nM in test [7].
Take `Cc1c(F)cccc1CN(C)c1cc(C(=O)N2CCNC(C(F)(F)F)C2)cc2ncc(N3CCOCC3)nc12` (single isomer, unassigned) [Compound 367b]: the dissociation constant Kd in test [1] was 427 nM; in test [3], 35 nM; in test [4], more than 30200 nM; in test [5], 28200 nM; in test [6], 2460 nM. For the same compound, the IC50 in test [2] and in test [7] was more than 513 nM in each case.
For the compound `CC(Nc1ccc(F)c(F)c1)c1cc(C(=O)N2CCC[C@H](O)C2)cc2ncc(N3CCOCC3)nc12` (single isomer, unassigned) [Compound 302b], the Kd in test [1] is 186 nM; in test [3], 3 nM; in test [4], 11700 nM; in test [5] it was more than 30200 nM; in test [6], 1100 nM. The IC50 in test [2] came out at 39 nM; in test [7], 54 nM.
For `CC(Nc1cc(F)cc(F)c1)c1cc(CO)cc2ncc(N3CCOCC3)nc12` (single isomer, unassigned) [Compound 154a], the Kd in test [1] turned out to be 98 nM; in test [3] it was 1 nM; in test [4], 741 nM; in test [5] it was 8510 nM; in test [6], 437 nM. Moreover, the IC50 in test [2] came to 23 nM; in test [7], 30 nM.
With `CC(Nc1cc(F)c(F)c(F)c1)c1cc(C(=O)NCC(C)(C)O)cc2ncc(N3CCOCC3)nc12` (single isomer, unassigned) [Compound 292b], the Kd was more than 30200 nM in test [1]; 14800 nM in test [3]; more than 30200 nM in test [4]; more than 30200 nM in test [5]; more than 30200 nM in test [6]. Besides, the IC50 in test [2] and in test [7] was more than 513 nM throughout.
Regarding `CC(Nc1cccc(F)c1)c1cc(C(=O)NC[C@@H](C)O)cc2ncc(N3CCOCC3)nc12` (stereo partly drawn) [Compound 338], the Kd in test [1] was 2950 nM; in test [3], 12 nM; in test [4], 4370 nM; in test [5], more than 30200 nM; in test [6], 2340 nM. The IC50 in test [2] (Homo sapiens, PC-3, 1 h) turned out to be 98 nM; in test [7] (Homo sapiens, PC-3, 1 h) it was 275 nM.
In the case of `CC(Nc1cc(F)cc(F)c1)c1cc(COCCO)cc2ncc(N3CCOCC3)nc12` (single isomer, unassigned) [Compound 178], the Kd in test [1] is 16600 nM; in test [3] it was 1100 nM; in test [4] it was more than 30200 nM; in test [5] it was more than 30200 nM; in test [6], more than 30200 nM. Further, the IC50 in test [2] and in test [7] was more than 513 nM in each case.
`CC(Oc1ccc(F)c(F)c1)c1cc(C(=O)N2CC[C@@H](N(C)C)C2)cc2ncc(N3CCOCC3)nc12` (single isomer, unassigned) [Compound 298b]: the dissociation constant (Kd) in test [1] was 10200 nM; in test [3] it was 186 nM; in test [4], more than 30200 nM; in test [5] it was more than 30200 nM; in test [6] it was 24000 nM. Moreover, the half-inhibitory concentration (IC50) in test [2] was more than 513 nM; in test [7] it was 501 nM.
On to `O=C(NCCO)c1cc(NCc2cc(F)cc(F)c2)c2nc(N3CCOCC3)cnc2c1` [Compound 229], for which the Kd in test [1] worked out at 1740 nM; in test [3], 7 nM; in test [4] it was 20400 nM; in test [5], 12600 nM; in test [6] it was 3890 nM. Further, the IC50 amounted to 96 nM in test [2] (Homo sapiens, PC-3, 1 h) and 186 nM in test [7] (Homo sapiens, PC-3, 1 h).
As to `COC(=O)[C@@H]1CCCN1C(=O)c1cc(C(C)Nc2cc(F)cc(F)c2)c2nc(N3CCOCC3)cnc2c1` (stereo partly drawn) [Compound 273], the Kd was 2750 nM in test [1]; 8 nM in test [3]; more than 10000 nM in test [4]; more than 30200 nM in test [5]; 6310 nM in test [6]. Besides, the IC50 in test [2] (Homo sapiens, PC-3, 1 h) was approximately 257 nM; in test [7] (Homo sapiens, PC-3, 1 h) it was 447 nM.
Take `CC(Nc1cc(F)cc(F)c1)c1cc(CNCC(F)(F)F)cc2ncc(N3CCOCC3)nc12` (single isomer, unassigned) [Compound 163]: the Kd in test [1] is 16200 nM; in test [3] it was 832 nM; in test [4], more than 30200 nM; in test [5], more than 30200 nM; in test [6], more than 30200 nM. Also, the IC50 in test [2] and in test [7] was more than 513 nM each time.
In the case of `C[C@@H]1CN(c2cnc3cc(C(=O)N(C)C)cc(C4CCCN4c4cc(F)cc(F)c4)c3n2)CCO1` (stereo partly drawn) [Compound 4], the Kd in test [1] is 22900 nM; in test [3] it was 1700 nM; in test [4], more than 30200 nM; in test [5] it was more than 30200 nM; in test [6], 23400 nM. In addition, the IC50 in test [2] (Homo sapiens, PC-3, 1 h) was more than 513 nM; in test [7] (Homo sapiens, PC-3, 1 h), more than 513 nM.
Consider `CC1CN(c2cnc3cc(C(=O)N(C)C)cc(N4CCCC4c4cc(F)cc(F)c4)c3n2)CCO1` (stereo not drawn) [Compound 396], for which the Kd in test [1] is 2040 nM; in test [3], 120 nM; in test [4], 20900 nM; in test [5], more than 30200 nM; in test [6], 7760 nM. In addition, the IC50 in test [2] (Homo sapiens, PC-3, 1 h) is more than 513 nM; in test [7] (Homo sapiens, PC-3, 1 h), more than 513 nM.

What is called Kd is the concentration at which binding is half-saturated. Usually IC50 stands for the concentration that inhibits the measured activity by half.
